# Measurements taken from ChEMBL document CHEMBL3885881, “DrugMatrix”.
# Species on record: Rattus norvegicus
# Test: DrugMatrix - Regimen: Daily Repeat
# Type: toxicity, organism-based, Sprague-Dawley
# Parameters: regimen Daily Repeat, gender Male, age 6-8 weeks
# Details: in vivo, po, route oral GAVAGE, […]; for ABSOLUTE BASOPHIL / ABSOLUTE EOSINOPHIL / ABSOLUTE LYMPHOCYTE / ABSOLUTE MONOCYTE / ABSOLUTE SEGMENTED NEUTROPHIL / BASOPHIL / EOSINOPHIL / ERYTHROCYTE COUNT / HEMATOCRIT / HEMOGLOBIN / LEUKOCYTE COUNT / LYMPHOCYTE / MEAN CORPUSCULAR HEMOGLOBIN / MEAN CORPUSCULAR HEMOGLOBIN CONCENTRATION / MEAN CORPUSCULAR VOLUME / MONOCYTE / NEUTROPHIL / NUCLEATED RED BLOOD CELLS / PLATELET COUNT: tissue Blood; for ALANINE AMINOTRANSFERASE / ALBUMIN / ALKALINE PHOSPHATASE / ASPARTATE AMINOTRANSFERASE / BLOOD UREA NITROGEN / CARBON DIOXIDE / CHLORIDE / CHOLESTEROL / CREATINE PHOSPHOKINASE / CREATININE / GLUCOSE / LACTATE DEHYDROGENASE / LIPASE / PHOSPHORUS / SODIUM / TOTAL BILIRUBIN / TOTAL PROTEIN / URIC ACID: tissue Plasma
# [1] = 450 mg/kg, 120 h, dose level Low, time 5 day
# [2] = 1500 mg/kg, 72 h, dose level High, time 3 day
# [3] = 1500 mg/kg, 120 h, dose level High, time 5 day
structure (smiles),measurement,setting,value
CC[C@H](C)C(=O)O[C@H]1C[C@@H](C)C=C2C=C[C@H](C)[C@H](CC[C@@H]3C[C@@H](O)CC(=O)O3)[C@H]21 [LOVASTATIN],ABSOLUTE BASOPHIL,[1],0 CELLS/uL
same,ABSOLUTE EOSINOPHIL,[1],0 CELLS/uL
same,ABSOLUTE LYMPHOCYTE,[1],8158 CELLS/uL
same,ABSOLUTE MONOCYTE,[1],134 CELLS/uL
same,ABSOLUTE SEGMENTED NEUTROPHIL,[1],1208 CELLS/uL
same,BASOPHIL,[1],0%
same,EOSINOPHIL,[1],0%
same,ERYTHROCYTE COUNT,[1],6.46 x10E6/uL
same,HEMATOCRIT,[1],40.17%
same,HEMOGLOBIN,[1],15.27 G/DL
same,LEUKOCYTE COUNT,[1],9.5 x10E3/uL
same,LYMPHOCYTE,[1],86%
same,MEAN CORPUSCULAR HEMOGLOBIN,[1],23.63 pg
same,MEAN CORPUSCULAR HEMOGLOBIN CONCENTRATION,[1],38.03 G/DL
same,MEAN CORPUSCULAR VOLUME,[1],62.2 fL
same,MONOCYTE,[1],1.33%
same,NEUTROPHIL,[1],12.67%
same,NUCLEATED RED BLOOD CELLS,[1],0 /100WBC
same,PLATELET COUNT,[1],1425.67 x10E3/uL
same,ALANINE AMINOTRANSFERASE,[1],153 u/L
same,ALBUMIN,[1],4.83 G/DL
same,ALKALINE PHOSPHATASE,[1],635.67 u/L
same,ASPARTATE AMINOTRANSFERASE,[1],360.33 u/L
same,BLOOD UREA NITROGEN,[1],15.33 mg/dL
same,CARBON DIOXIDE,[1],35.67 mmol/L
same,CHLORIDE,[1],100.5 MEQ/L
same,CHOLESTEROL,[1],28.67 mg/dL
same,CREATINE PHOSPHOKINASE,[1],410.33 u/L
same,CREATININE,[1],0.31 mg/dL
same,GLUCOSE,[1],137.33 mg/dL
same,LACTATE DEHYDROGENASE,[1],182.33 u/L
same,LIPASE,[1],15.33 u/L
same,PHOSPHORUS,[1],8.7 mg/dL
same,SODIUM,[1],145.2 MEQ/L
same,TOTAL BILIRUBIN,[1],0.23 mg/dL
same,TOTAL PROTEIN,[1],6.1 G/DL
same,URIC ACID,[1],0.5 mg/dL
same,ABSOLUTE BASOPHIL,[2],0 CELLS/uL
same,ABSOLUTE EOSINOPHIL,[2],21.67 CELLS/uL
same,ABSOLUTE LYMPHOCYTE,[2],6143.33 CELLS/uL
same,ABSOLUTE MONOCYTE,[2],201 CELLS/uL
same,ABSOLUTE SEGMENTED NEUTROPHIL,[2],2134 CELLS/uL
same,BASOPHIL,[2],0%
same,EOSINOPHIL,[2],0.33%
same,ERYTHROCYTE COUNT,[2],5.62 x10E6/uL
same,HEMATOCRIT,[2],35.1%
same,HEMOGLOBIN,[2],13.97 G/DL
same,LEUKOCYTE COUNT,[2],8.5 x10E3/uL
same,LYMPHOCYTE,[2],72%
same,MEAN CORPUSCULAR HEMOGLOBIN,[2],24.9 pg
same,MEAN CORPUSCULAR HEMOGLOBIN CONCENTRATION,[2],39.83 G/DL
same,MEAN CORPUSCULAR VOLUME,[2],62.5 fL
same,MONOCYTE,[2],2.33%
same,NEUTROPHIL,[2],25.33%
same,NUCLEATED RED BLOOD CELLS,[2],0 /100WBC
same,PLATELET COUNT,[2],1031.67 x10E3/uL
same,ALANINE AMINOTRANSFERASE,[2],318 u/L
same,ALBUMIN,[2],4.3 G/DL
same,ALKALINE PHOSPHATASE,[2],538.67 u/L
same,ASPARTATE AMINOTRANSFERASE,[2],602.33 u/L
same,BLOOD UREA NITROGEN,[2],15.33 mg/dL
same,CARBON DIOXIDE,[2],30.33 mmol/L
same,CHLORIDE,[2],98 MEQ/L
same,CHOLESTEROL,[2],50 mg/dL
same,CREATINE PHOSPHOKINASE,[2],490 u/L
same,CREATININE,[2],0.37 mg/dL
same,GLUCOSE,[2],141.67 mg/dL
same,LACTATE DEHYDROGENASE,[2],851.33 u/L
same,LIPASE,[2],10.33 u/L
same,PHOSPHORUS,[2],10.3 mg/dL
same,SODIUM,[2],142.63 MEQ/L
same,TOTAL BILIRUBIN,[2],0.1 mg/dL
same,TOTAL PROTEIN,[2],5.53 G/DL
same,URIC ACID,[2],0.7 mg/dL
same,ABSOLUTE BASOPHIL,[3],0 CELLS/uL
same,ABSOLUTE EOSINOPHIL,[3],0 CELLS/uL
same,ABSOLUTE LYMPHOCYTE,[3],8899 CELLS/uL
same,ABSOLUTE MONOCYTE,[3],314.33 CELLS/uL
same,ABSOLUTE SEGMENTED NEUTROPHIL,[3],2320 CELLS/uL
same,BASOPHIL,[3],0%
same,EOSINOPHIL,[3],0%
same,ERYTHROCYTE COUNT,[3],6.78 x10E6/uL
same,HEMATOCRIT,[3],41.27%
same,HEMOGLOBIN,[3],15.53 G/DL
same,LEUKOCYTE COUNT,[3],11.53 x10E3/uL
same,LYMPHOCYTE,[3],76%
same,MEAN CORPUSCULAR HEMOGLOBIN,[3],22.93 pg
same,MEAN CORPUSCULAR HEMOGLOBIN CONCENTRATION,[3],37.63 G/DL
same,MEAN CORPUSCULAR VOLUME,[3],60.93 fL
same,MONOCYTE,[3],2.67%
same,NEUTROPHIL,[3],21.33%
same,NUCLEATED RED BLOOD CELLS,[3],0 /100WBC
same,PLATELET COUNT,[3],1526.33 x10E3/uL
same,ALANINE AMINOTRANSFERASE,[3],234.33 u/L
same,ALBUMIN,[3],4.7 G/DL
same,ALKALINE PHOSPHATASE,[3],440.67 u/L
same,ASPARTATE AMINOTRANSFERASE,[3],648.33 u/L
same,BLOOD UREA NITROGEN,[3],17 mg/dL
same,CARBON DIOXIDE,[3],35.67 mmol/L
same,CHLORIDE,[3],100.5 MEQ/L
same,CHOLESTEROL,[3],55.33 mg/dL
same,CREATINE PHOSPHOKINASE,[3],603 u/L
same,CREATININE,[3],0.34 mg/dL
same,GLUCOSE,[3],135 mg/dL
same,LACTATE DEHYDROGENASE,[3],832.33 u/L
same,LIPASE,[3],14.67 u/L
same,PHOSPHORUS,[3],8.5 mg/dL
same,SODIUM,[3],145.6 MEQ/L
same,TOTAL BILIRUBIN,[3],0.2 mg/dL
same,TOTAL PROTEIN,[3],6.33 G/DL
same,URIC ACID,[3],0.63 mg/dL
